According to patent US20250262188A1, “Methods of Increasing the Plasma Drug Exposure of Anticancer Agents” (Scandion Oncology A/S, priority 2021, published 2025):
Entries after “also recorded” stand apart in the source; their conditions may differ. Where two headings read alike, the source gives them in different places.

Key:
[1] = target: T1, BCRP (Homo sapiens, UniProt Q9UNQ0); test: 3H-SN-38 uptake in HT29 parental cell monolayers (Example 6); type: cell-based; conditions: 25 μM test compound; HT29 parental; ANOVA α=0.05
T1 construct: endogenous in cells; host or cells: HT29 parental and HT29 SN38-resistant colorectal cancer cells
T1 sequence (Q9UNQ0 1-655): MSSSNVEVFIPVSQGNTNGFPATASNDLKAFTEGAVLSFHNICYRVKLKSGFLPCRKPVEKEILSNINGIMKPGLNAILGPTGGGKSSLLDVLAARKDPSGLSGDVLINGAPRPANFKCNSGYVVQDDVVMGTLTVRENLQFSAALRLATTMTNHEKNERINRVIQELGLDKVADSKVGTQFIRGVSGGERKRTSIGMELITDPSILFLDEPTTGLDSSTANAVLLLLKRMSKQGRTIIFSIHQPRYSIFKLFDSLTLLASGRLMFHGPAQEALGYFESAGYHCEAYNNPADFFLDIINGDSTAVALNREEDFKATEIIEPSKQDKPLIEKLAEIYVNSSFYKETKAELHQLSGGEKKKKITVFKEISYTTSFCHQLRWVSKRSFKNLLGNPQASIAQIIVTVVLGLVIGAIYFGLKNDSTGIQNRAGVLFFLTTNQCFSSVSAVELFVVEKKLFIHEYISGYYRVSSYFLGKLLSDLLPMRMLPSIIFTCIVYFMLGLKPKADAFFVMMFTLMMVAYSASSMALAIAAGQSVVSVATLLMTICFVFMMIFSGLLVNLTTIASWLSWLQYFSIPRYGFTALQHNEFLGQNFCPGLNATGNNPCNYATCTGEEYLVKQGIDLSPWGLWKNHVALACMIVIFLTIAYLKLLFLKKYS
Experimental: (§1) All treatments were investigated in three technical replicates (N=3). On the day of experimentation, the culture media was exchanged with 100 μL transport buffer (HBSS, 0.05% BSA, 10 mM HEPES, pH 7.4) and cells were incubated for 15 minutes at 37° C.
(§2) Subsequently, the blank transport buffer was exchanged with 50 μL transport buffer containing the different compounds (in 2x of the final concentration) to be tested and incubated for 15 minutes at 37° C. The uptake experiment was started by adding 50 μL of ^3H-SN38 at a concentration of 2 μCi/mL to all wells (the resulting concentration of ^3H-SN38 during the experiment was 1 μCi/mL). The uptake experiment was stopped after 15 minutes of incubation at 37° C. by removing the transport buffer from all wells.
(§3) The cell monolayers were subsequently washed twice by adding/removing ice-cold transport buffer twice and finally the cell monolayers were lysed by incubation in 100 μl of 0.1% TritonX-100 for 15 minutes at ambient temperature. Cell lysates were transferred to scintillation vials containing 2 mL of scintillation fluid (Ultima Gold, PerkinElmer). Each well was washed with 2×100 μL purified water (milliQ), which was also transferred to respective scintillation vials.

[2] = target: T1, BCRP; test: 3H-SN-38 uptake in HT29 SN-38 resistant cell monolayers (Example 6); type: cell-based; conditions: 25 μM test compound, HT29 SN-38 resistant, ANOVA α=0.05
Experimental: as §1, §2, §3

[3] = Irinotecan (Camptosar) Norm 125 mg/m2, NO SCO-101 (n = 99), literature value; cited from earlier work
[4] = SN-38 and irinotecan PK in patients with 100 or 150 mg SCO-101 and FOLFIRI versus literature (Example 7); conditions: for AUC Mean (SD) / Cmax Mean (SD): Irinotecan (FOLFIRI) Norm 125 mg/m2, add-on 150 mg SCO-101 (n = 10)
[5] = FIG. 1A, cited from earlier work
[6] = SN-38 PK profile and tolerability in metastatic colorectal cancer patients treated with SCO-101 and FOLFIRI (Example 2); type: in vivo, human
Experimental: Patients with metastatic colorectal cancer were included in a study and treated with a combination of SCO-101 and FOLFIRI (combination of irinotecan, 5-FU and leucovorin) in 14 day treatment cycles. Patients received varying doses of Irinotecan between 50% and 80% of the recommended dose of Irinotecan (180 mg/m^2) according to their individual tolerability, which is standard practise. On days 1, 2, 3, 4, 5 and 6 in each treatment cycle, patients received one fixed daily dose of 150 mg SCO-101 taken in the morning at least 30 minutes before ingestion of food. On day 5 to 7, patients received FOLFIRI as specified for Colorectal cancer combination regimen 2.
Blood plasma samples were analysed for concentrations of SCO-101, irinotecan and SN-38 using Liquid Chromatography with Tandem Mass Spectrometric Detection (LC-MS/MS) bioanalytical method calibrated and validated in the rant 300 to 90.000 ng/ml. The method and system, including validation were according to industry standard. Data were analysed using commercially available software such as Win-Non-Lin (available from Certara inc.)
A trial was setup to address the safety, tolerability, and efficacy of SCO-101 given orally for 6 days followed by FOLFIRI at varying doses from day 5 to 7, in a biweekly schedule, in patients with metastatic colorectal cancer who have formerly been treated with FOLFIRI and afterwards progressed. The first part of the study was a dose-finding study, where the impact of SCO-101 on the pharmacokinetics (PK) of SN-38 was studied.
12 patients from the dose-finding part of the study received 150 mg SCO-101 for 6 days and […] of the recommended dose of FOLFIRI. 6 of the patients had RAS wildtype tumors and these patients were subjected to further analysis.
Blood for pharmacokinetic analysis was sampled from the patients were taken at 1, 2, 4, 8, 24, 48, and 96 hours after treatment with FOLFIRI and SCO-101.

[7] = SN-38, 90 mg/m2 irinotecan + SCO-101 vs 180 mg/m2 standard

Uptake of SN-38 relative to blank HBSS transport buffer control [1]	AUC Mean (SD) [4]	Cmax Mean (SD) [4]	SMILES	AUC Mean (SD) [3]	Cmax Mean (SD) [3]	Uptake of SN-38 relative to blank HBSS transport buffer control [2]	further results
significant increase			Nc1ncnc2n[nH]c(Nc3ccc(F)cc3)c12 [CGP57380]				Uptake of SN-38 relative to blank HBSS transport buffer control ([2]; listed as CGP5738): not different
	12565 ng·h/mL	1457 ng/mL	CCc1c2c(nc3ccc(OC(=O)N4CCC(N5CCCCC5)CC4)cc13)-c1cc3c(c(=O)n1C2)COC(=O)[C@]3(O)CC [Irinotecan]	10529 ng·h/mL	1492 ng/mL		
	2088 ng·h/mL	86 ng/mL	CCc1c2c(nc3ccc(O)cc13)-c1cc3c(c(=O)n1C2)COC(=O)[C@]3(O)CC [SN-38]	267 ng·h/mL	27.8 ng/mL		Fold increase in AUC of SN-38 vs 125 mg/m2 irinotecan administered alone ([4]; 100 mg SCO-101): approximately 5 fold; Fold increase in AUC of SN-38 vs 125 mg/m2 irinotecan administered alone ([4]; 150 mg SCO-101): ~8 fold; SN-38 plasma Cmax ([5]; conventional irinotecan regime 180 mg/m^2, no SCO-101, public reference data): about 25 ng/ml; Time after which SN-38 plasma concentration becomes therapeutically ineffective ([5]; conventional irinotecan regime 180 mg/m^2): about 24 hours; Fold increase (study vs Standard) of AUC_0-24 [6, 7]: 3.7; Fold increase (study vs Standard) of Cmax [6, 7]: 1.5; Fold increase (study vs Standard) of T½ [6, 7]: 1.6; half-life ([6]; human, plasma, intravenous, SN-38 study: 150 mg SCO-101 + FOLFIRI, normalized to irinotecan 90 mg/m2, day 5, read-out: T½ hours (SD) (converted)): 19 h; AUC(0-t) ([6]; human, plasma, intravenous, SN-38 study: 150 mg SCO-101 + FOLFIRI, normalized to irinotecan 90 mg/m2, read-out: AUC_0-24 h*ng/ml (SD)): 1420 ng·h/mL
significant increase			O=C(Nc1cc(C(F)(F)F)ccc1N1CCCCC1)c1ccncc1 [Srpin340]			significantly increased; also recorded: significant increase	
significant increase			Cc1cc(Nc2cc(N)ncn2)c(=O)n2c1C(=O)NC21CCCCC1 [Tomivorsetib]			significantly increased; also recorded: significant increase	
